The values that follow come from article PMC5310922, “A high-throughput phenotypic screen identifies clofazimine as a potential treatment for cryptosporidiosis” (PLoS Neglected Tropical Diseases, 2017).

The nature of data set [1]: HEK293T 72 h cytotoxicity (CellTiter-Glo). The data set is classed as cell-based, human. To be noted: human. The procedure:
Two mammalian cell lines were used for counter-screening for general cytotoxicity of hit compounds: human embryonic kidney cells (HEK293T; ATCC CRL-3216) and human hepatocellular carcinoma cells (HepG2; ATCC HB-8065). […] Compounds were pre-spotted into tissue culture-treated white solid-bottomed 1536-well plates (Greiner) in a 1:3 dose-response dilution (top concentration 20 μM). HEK293T and HepG2 cells were diluted to 75×10^3 cells/mL and 150×10^3 cells/mL, respectively, and 5 μL/well were dispensed into assay plates with a MultiFlo FX Multi-Mode Dispenser (Biotek). […] At the completion of the assay, CellTiter-Glo (Promega) was prepared at 1:2 (reagent:water) of the manufacturer’s instructions, and 2 μL were dispensed into each well. After a 5 min incubation at room temperature, luminescence readings were measured with an EnVision Multilabel Plate Reader (Perkin Elmer). […] were uploaded into Genedata Screener (v13.0-Standard), and data normalized to DMSO- and puromycin-treated wells. A four-parameter non-linear regression curve fit was applied to dose-response data using Genedata to determine the half maximal cytotoxic concentration (CC50) of each compound.

For data set [2], the system named is C. parvum. In words: Washout assay: 3-h treatments over the asexual life cycle of C. parvum. Particulars: 3-h treatment then washout; even at 3×EC99.
Method: We examined short, three-hour compound treatments of in vitro cultures, followed by compound washout, that covered the complete asexual life cycle, believed to be 13–15 h post invasion [36]. […] The treatment interval lasted 3 h before washout with fresh medium; infected cells were allowed to grow until 48 h post infection before fixation. […] As CFZ is very lipophilic, we sought to determine whether intracellular accumulation was affecting the strong inhibition across each time point.
Infected cells were treated in six 3-h increments over the course of 15 h (the presumed in vitro asexual lifecycle of C. parvum). HCT-8 cells were seeded (25 μL/well) into clear-bottomed 384-well plates (Greiner) at a density of 6.0×10^5 cells/mL (15,000 cells/well) in assay medium, and allowed to grow 24 h at 37°C with 5% CO2 in a humidified tissue culture incubator, covered with a custom metal lid (The Genomics Institute of the Novartis Research Foundation) to reduce evaporation. After 24 h, and 2 h before infecting with C. parvum oocysts (time -2 hpi), the treatment time course was initiated. […] DMSO was used as a negative control. Cell medium was removed from designated wells and replaced with medium containing either compound or DMSO. […] Plates were then spun at 150×g for 3 min, and kept at 37°C with 5% CO2 in a humidified tissue culture incubator during drug treatment intervals. At the end of each 3 h time point, infected cells were carefully washed three times with fresh, pre-warmed assay medium, and the next set of wells for the subsequent time point were treated. The final time point extended to 18 h, to cover re-invasion of merozoites into new HCT-8 cells. After the final compound treatment was washed off, infected cells were allowed to grow until 48 h post infection.
Data set [3] can be described thus: Pharmacokinetic study in mice (plasma, feces, urine). Particulars: 20 mg/kg oral; for fecal excretion (unchanged), first 24 h: mean ± SEM; for peak plasma concentration: mean ± SEM n=3.
In another data set the test system is Cryptosporidium. Set-up: method as in PMID 23878324. To be noted: once per day for ten consecutive days at 100 mg/kg; cited from earlier work.
In data set [4] the test system is C. parvum. In words: Host cell 3-h pre-treatment, with or without wash, then C. parvum infection. The data set is classed as cell-based, Cryptosporidium parvum. Particulars: for EC50: Cryptosporidium parvum, host cells pretreated 3 h, C. parvum, 48 hpi. The procedure: A set of parallel wells were also treated and not washed prior to infection. 48 hpi, infected cells were imaged as described above, and EC50s for each compound pre- and post-wash were determined.

Another data set is described as follows: in vitro. To be noted: human. The procedure:
Cells were then plated (5 μL/well) into 1536-well assay plates at a density of 5.5×10^5 cells/mL (2,750 cells/well).
Plates were then washed twice with phosphate buffered saline (PBS). […] To prevent non-specific binding, the cells were blocked with SuperBlock™ T20 blocking agent (Thermo) for 1 h at room temperature. Cryptosporidium parasites were stained with 1 μg/mL fluorescein isothiocyanate (FITC)-conjugated Vicia villosa lectin (Vector Laboratories) in 1:10 diluted SuperBlock™ in PBS-T, supplemented with 3 μM 4',6-diamidino-2-phenylindole (DAPI) to visualize host cell nuclei. Staining was for 1 h at room temperature in the dark. Finally, cells were washed twice with PBS-T and the plates were sealed with adhesive foil. The plates were imaged with a CellInsight CX5 High Content Screening Platform (Thermo) with a 10× objective. […] For 1536-well format assays (primary screening, triplicate reconfirmation, and dose-response reconfirmation, one microscopic field (802,511.39 μm^2) per well, and for the 384-well washout assay, 4 fields per well were captured. The software identified primary objects (HCT-8 host cells) and spots within allowed distances to the nuclei (Cryptosporidium). Both cytotoxicity against HCT-8 cells (number of nuclei relative to DMSO-treated controls) and Cryptosporidium inhibition (spot counts relative to DMSO-treated controls) were assessed.
Images were processed by the HCS Studio Scan software, and Selected Object Count (HCT-8 cells) and Spot Count (Cryptosporidium) were analyzed in Genedata Screener (v13.0-Standard). Spot Count and Selected Object Count were normalized to neutral controls minus inhibitors (floxuridine for Spot Count, and puromycin for Selected Object Count). For single-point primary assay plates, an additional run-wise median correction was applied to reduce screen artifacts (e.g. uneven dispense), whereas no correction was applied to triplicate reconfirmation and dose-response plates. For primary screening, a compound is considered a hit by a ≥ 70% reduction in Corrected Spot Count. Compounds that caused moderate cytotoxicity were filtered out (i.e., excluding all Corrected Selected Object Counts ≤ -60%). Dose-response curves were fit with Genedata Analyzer using the Smart Fit function.

For another data set, the system named is Cryptosporidium parvum. In words: C. parvum proliferation in HCT-8 cells, 48 h high-content imaging assay. The data set is classed as cell-based, Cryptosporidium parvum (Iowa strain). To be noted: for EC50: Cryptosporidium parvum, 48 h; for EC99 against C. parvum: concentration used in washout assay.
On the set-up of data set [5]: method as in PMID 2656045. To be noted: cited from earlier work.
[6] abbreviates: 7% Tween 80, 3% ethanol, 90% water.
The mark [7] stands for this setting: HCT-8 cells, read-out: EC50 against C. parvum.
Setting [8] is: in HCT-8 cells, value (SD; n), read-out: C. parvum 48H Assay EC50 [µM] (SD; n).

Read-outs that look alike come from different tables or passages of the source.

By EC50 is commonly meant the midpoint of the concentration-response curve. `CCOc1ccc2cc(-c3nn(CC4CCN(C)CC4)c4ncnc(N)c34)ccc2c1` [BKI-1294] registered a CC50 at 72 h in data set [1] of 12.4 µM. In the data set on C. parvum [2], the “inhibition of parasite growth at all time points other than 10–13 h post infection” value is listed as below 60%. Moreover, the “dosage excreted in the urine, first 48 h” value in data set [3] is recorded as 1.6%. The “plasma concentration dropped to, within first 24 h post dosing” value in data set [3] came out at 6.7 ± 0.3 ng/mL. Besides, the “fecal excretion (unchanged), first 24 h” value in data set [3] (setting [6]) was 8.9% ± 0.5%. Further, the peak plasma concentration in data set [3] (setting [6]) came out at 1282 ± 154 ng/mL. Moreover, in the data set on Cryptosporidium, the “efficacy in mouse model of chronic cryptosporidiosis” value is “demonstrated efficacy”. For the same compound, the concentration giving a half-maximal response (EC50) with C. parvum [4] (read-out: Post-wash EC50) was 955 nM; with C. parvum [4] (read-out: Pre-wash EC50) it was above 12500 nM; with Cryptosporidium parvum (setting [7]), 0.4 µM; in the data set on Cryptosporidium parvum (setting [8]) it was 0.388 µM. Also, in the data set “in vitro”, the CC50 at 48 h is above 12500 nM. Moreover, in the data set with Cryptosporidium parvum, the “EC99 against C. parvum” value was determined as 2 µM.
For `CC(C)/N=c1\cc2n(-c3ccc(Cl)cc3)c3ccccc3nc-2cc1Nc1ccc(Cl)cc1` [Clofazimine], in data set [1] (HEK293T cells, 72 h, value (SD; n), read-out: HEK293T 72H Cytotoxicity CC50 [µM] (SD; n)), the CC50 at 72 h was above 20 µM. The “dosage excreted in the urine, first 48 h” value in data set [3] is below 0.15%. Further, the “time plasma concentrations remained stable after the initial maximal concentration” value in data set [3] is listed as “at least 20 hours”. Also, the “fecal excretion (unchanged), first 24 h” value is on record as 25.7% ± 13.3% in data set [3] (MC-Tween) and 14.8% ± 3.1% in data set [3] (corn oil). The peak plasma concentration in data set [3] (MC-Tween, within first 24 h) is listed as 288 ± 2 ng/mL; in data set [3] (corn oil, within first 24 h), 445 ± 61 ng/mL. Moreover, the “mean fecal excretion, next 48 h” value in data set [3] (either formulation) is recorded as below 2%. Moreover, in data set [5], the drug half-life is given as ~ 70 days. The EC50 was determined as 7 nM in the data set on C. parvum [4] (read-out: Post-wash EC50), 23 nM with C. parvum [4] (read-out: Pre-wash EC50), 0.015 µM in the data set with Cryptosporidium parvum (setting [7]) and 0.0149 µM in the data set with Cryptosporidium parvum (setting [8]). Besides, the “inhibition of C. parvum proliferation after compound removal by repeated washes” value with C. parvum [4] (host cell pre-treatment, dose-response) is listed as “near equipotent inhibition”. Further, in “in vitro” (HCT-8 cells), the CC50 at 48 h was above 12500 nM. The “fold more potent against C. parvum than C. hominis” value in the data set with Cryptosporidium parvum (C. parvum vs C. hominis EC50) was ~ 20 fold. Besides, in the data set with Cryptosporidium parvum, the “EC99 against C. parvum” value was determined as 0.03 µM.
